Data taken from patent publication US7879760B2, “Isopentyl carboxanilides for combating undesired micro-organisms” (Bayer CropScience AG, priority 2003, dated 2011).
Structures can show the parent of a compound that is named as a salt.

Test system: not listed separately
Assay: logP determination by HPLC on reversed phase column (C 18), EEC-Directive 79/831 Annex V.A8
Format: physicochemical
Details: reversed phase HPLC column (C 18), pH 2.3, 0.1% aqueous phosphoric acid/acetonitrile gradient, 43° C.
Experimental: The determination of the logP values given in preparation examples and tables above is carried out according to EEC-Directive 79/831 Annex V.A8 by HPLC (High Performance Liquid Chromatography) on a reversed phase column (C 18). Temperature: 43° C.
Determination is carried out in the acidic range at pH 2.3 using the mobile phases 0.1% aqueous phosphoric acid and acetonitrile; linear gradient from 10% acetonitrile to 90% acetonitrile.
Calibration is carried out using unbranched alkan-2-ones (of 3 to 16 carbon atoms) whose logP values are known (determination of the logP values by retention times using linear interpolation between two successive alkanones).
Compound Cc1nn(C)c(F)c1C(=O)Nc1ccccc1CCC(C)C [Example 1, 5-fluoro-1,3-dimethyl-N-[2-(3-methylbutyl)phenyl]-1H-pyrazole-4-carboxamide] has a chromatographic logP of 3.12.
Work on CC(=O)Nc1ccccc1CCC(C)(C)C [Example (III-2), N-[2-(3,3-dimethylbutyl)phenyl]acetamide] yielded a chromatographic logP of 2.69.
With CC(C)(C)CCc1ccccc1N [Example (III-3), 2-(3,3-dimethylbutyl)phenylamine hydrochloride] the chromatographic logP was 2.2.
With Cc1nn(C)c(F)c1C(=O)Nc1ccccc1C(=O)CC(C)C [Example (V-1)] the chromatographic logP was 3.42.
In the case of CC(C)(C)C#Cc1ccccc1NC(=O)c1ccccc1C(F)(F)F [Example (VII-1), N-[2-(3,3-dimethylbut-1-ynyl)phenyl]-2-trifluoromethylbenzamide], the chromatographic logP is reported as 4.55.
Compound CC(C)CC(=O)c1ccccc1N [Example (X-1), 1-(2-aminophenyl)-3-methylbutan-1-one] has a chromatographic logP of 2.89.
Work on CC(=O)Nc1ccccc1C#CC(C)(C)C [Example (XIII-1), N-[2-(3,3-dimethylbut-1-ynyl)-phenyl]acetamide] yielded a chromatographic logP of 3.03.

Test system: Podosphaera leucotricha
Assay: Podosphaera test (apple)/protective
Format: in vivo
Details: 240 h, apple plants, protective spray, application rate 100 g/ha, evaluation 10 days after inoculation, read-out: Efficacy in %
Experimental: To produce a suitable preparation of active compound, 1 part by weight of compound is mixed with the stated amounts of solvents and emulsifier, and the concentrate is diluted with water to the desired concentration.
To test for protective activity, young plants are sprayed with the preparation of active compound at the stated application rates. After the spray coating has dried on, the plants are inoculated with an aqueous spore suspension of the apple mildew pathogen Podosphaera leucotricha. The plants are then placed in a greenhouse at about 23° C. and a relative atmospheric humidity of about 70%.
Evaluation is carried out 10 days after the inoculation. 0% means an efficacy which corresponds to that of the control, whereas an efficacy of 100% means that no infection is observed.
In the case of Cc1nn(C)c(F)c1C(=O)Nc1ccccc1CCC(C)C [drawing 93], the pest or weed control at 100 g/ha is reported as 100%.
Cc1nn(C)c(F)c1C(=O)Nc1ccccc1CCC(C)(C)C [drawing 94] showed a pest or weed control at 100 g/ha of 100%.
Compound Cc1ccsc1C(=O)Nc1ccccc1CCC(C)(C)C [drawing 95] has a pest or weed control at 100 g/ha of 99%.
Work on Cc1ccccc1C(=O)Nc1ccccc1CCC(C)(C)C [drawing 96] yielded a pest or weed control at 100 g/ha of 97%.
CCC(C)(C)CCc1ccccc1NC(=O)c1c(C)nn(C)c1F [drawing 97] showed a pest or weed control at 100 g/ha of 99%.
CCC(C)(C)CCc1ccccc1NC(=O)c1cn(C)nc1C(F)F [drawing 98] showed a pest or weed control at 100 g/ha of 100%.
For Cn1cc(C(=O)Nc2ccccc2CCC(C)(C)C)c(C(F)F)n1 [drawing 99], the pest or weed control at 100 g/ha was 100%.
Cn1nc(C(F)(F)F)c(C(=O)Nc2ccccc2CCC(C)(C)C)c1F [drawing 100] showed a pest or weed control at 100 g/ha of 100%.

Test system: Puccinia recondita
Assay: Puccinia test (wheat)/curative
Format: in vivo
Details: 192 h, wheat plants, curative spray 48 hours after inoculation, application rate 500 g/ha, evaluation 8 days after inoculation, read-out: Efficacy in %
Experimental: (§1) To produce a suitable preparation of active compound, 1 part by weight of active compound is mixed with the stated amounts of solvent and emulsifier, and the concentrate is diluted with water to the desired concentration.
To test for curative activity, young plants are sprayed with a conidia suspension of Puccinia recondita. The plants remain in an incubation cabin at 20° C. and 100% relative atmospheric humidity for 48 hours. The plants are then sprayed with the preparation of active compound at the stated application rates.
The plants are then placed in a greenhouse at a temperature of about 20° C. and a relative atmospheric humidity of 80% to promote the development of rust pustules.
Evaluation is carried out 8 days after the inoculation. 0% means an efficacy which corresponds to that of the control, whereas an efficacy of 100% means that no infection is observed.
In the case of Cc1ccccc1C(=O)Nc1ccccc1CCC(C)C, the pest or weed control at 500 g/ha is reported as 100%.
Cc1nn(C)c(F)c1C(=O)Nc1ccccc1CCC(C)C [drawing 119] gave a pest or weed control at 500 g/ha of 100%.
Work on Cc1nn(C)c(F)c1C(=O)Nc1ccccc1CCC(C)(C)C [drawing 120] yielded a pest or weed control at 500 g/ha of 100%.
Work on Cc1ccsc1C(=O)Nc1ccccc1CCC(C)(C)C [drawing 121] yielded a pest or weed control at 500 g/ha of 100%.
CC(C)CCc1ccccc1NC(=O)c1ccccc1C(F)(F)F [drawing 122] showed a pest or weed control at 500 g/ha of 100%.
Compound CCC(C)(C)CCc1ccccc1NC(=O)c1c(C)nn(C)c1F [drawing 124] has a pest or weed control at 500 g/ha of 100%.
CCC(C)(C)CCc1ccccc1NC(=O)c1cn(C)nc1C(F)F [drawing 125] gave a pest or weed control at 500 g/ha of 100%.
Compound Cn1cc(C(=O)Nc2ccccc2CCC(C)(C)C)c(C(F)F)n1 [drawing 126] has a pest or weed control at 500 g/ha of 100%.
Cn1cc(C(=O)Nc2ccc(F)cc2CCC(C)(C)C)c(C(F)F)n1 [drawing 127] showed a pest or weed control at 500 g/ha of 100%.

Test system: Botrytis cinerea
Assay: Botrytis test (bean)/protective
Format: in vivo
Details: 48 h, bean plants, protective spray, application rate 500 g/ha, evaluation two days after inoculation, read-out: Efficacy in %
Experimental: To produce a suitable preparation of active compound, 1 part by weight of active compound is mixed with the stated amounts of solvents and emulsifier, and the concentrate is diluted with water to the desired concentration.
To test for protective activity, young plants are sprayed with the preparation of active compound at the stated application rates. After the spray coating has dried on, 2 small pieces of agar colonized by Botrytis cinerea are placed onto each leaf. The inoculated plants are placed in a dark chamber at about 20° C. and 100% relative atmospheric humidity.
Two days after the inoculation, the size of the infected areas on the leaves is evaluated. 0% means an efficacy which corresponds to that of the control, whereas an efficacy of 100% means that no infection is observed.
With Cc1nn(C)c(F)c1C(=O)Nc1ccccc1CCC(C)C [drawing 110] the pest or weed control at 500 g/ha was 84%.
Work on Cc1nn(C)c(F)c1C(=O)Nc1ccccc1CCC(C)(C)C [drawing 111] yielded a pest or weed control at 500 g/ha of 100%.
Cc1ccsc1C(=O)Nc1ccccc1CCC(C)(C)C [drawing 112] gave a pest or weed control at 500 g/ha of 100%.
Cc1ccccc1C(=O)Nc1ccccc1CCC(C)(C)C [drawing 113] showed a pest or weed control at 500 g/ha of 87%.
For CCC(C)(C)CCc1ccccc1NC(=O)c1c(C)nn(C)c1F [drawing 114], the pest or weed control at 500 g/ha was 100%.
For CCC(C)(C)CCc1ccccc1NC(=O)c1cn(C)nc1C(F)F [drawing 115], the pest or weed control at 500 g/ha was 100%.
Work on Cn1cc(C(=O)Nc2ccccc2CCC(C)(C)C)c(C(F)F)n1 [drawing 116] yielded a pest or weed control at 500 g/ha of 100%.
Cn1nc(C(F)(F)F)c(C(=O)Nc2ccccc2CCC(C)(C)C)c1F [drawing 117] showed a pest or weed control at 500 g/ha of 100%.
Compound Cn1cc(C(=O)Nc2ccc(F)cc2CCC(C)(C)C)c(C(F)F)n1 [drawing 118] has a pest or weed control at 500 g/ha of 100%.

Test system: Venturia inaequalis
Assay: Venturia test (apple)/protective
Format: in vivo
Details: apple plants, protective spray, application rate 100 g/ha, read-out: Efficacy in %
Experimental: [table] To produce a suitable preparation of active compound, 1 part by weight of active compound is mixed with the stated amounts of solvents and emulsifier, and the concentrate is diluted with water to the desired concentration. To test for protective activity, young plants are sprayed with the preparation of active compound at the stated application rates. After the spray coating has dried on, the plants are inoculated with an aqueous conidia suspension of the apple scab pathogen Venturia inaequalis and then remain in an incubation cabin at about 20° C. and 100% relative atmospheric humidity for 1 day. The plants are then placed in a greenhouse at about 21° C. and a relative atmospheric humidity of about 90%.
Work on Cc1nn(C)c(F)c1C(=O)Nc1ccccc1CCC(C)C [drawing 101] yielded a pest or weed control at 100 g/ha of 96%.
In the case of Cc1nn(C)c(F)c1C(=O)Nc1ccccc1CCC(C)(C)C [drawing 102], the pest or weed control at 100 g/ha is reported as 100%.
In the case of Cc1ccsc1C(=O)Nc1ccccc1CCC(C)(C)C [drawing 103], the pest or weed control at 100 g/ha is reported as 99%.
Cc1ccccc1C(=O)Nc1ccccc1CCC(C)(C)C [drawing 104] gave a pest or weed control at 100 g/ha of 97%.
With CCC(C)(C)CCc1ccccc1NC(=O)c1c(C)nn(C)c1F [drawing 105] the pest or weed control at 100 g/ha was 100%.
Compound CCC(C)(C)CCc1ccccc1NC(=O)c1cn(C)nc1C(F)F [drawing 106] has a pest or weed control at 100 g/ha of 100%.
In the case of Cn1cc(C(=O)Nc2ccccc2CCC(C)(C)C)c(C(F)F)n1 [drawing 107], the pest or weed control at 100 g/ha is reported as 100%.
In the case of Cn1nc(C(F)(F)F)c(C(=O)Nc2ccccc2CCC(C)(C)C)c1F [drawing 108], the pest or weed control at 100 g/ha is reported as 100%.
With Cn1cc(C(=O)Nc2ccc(F)cc2CCC(C)(C)C)c(C(F)F)n1 [drawing 109] the pest or weed control at 100 g/ha was 100%.

Test system: Sphaerotheca fuliginea
Assay: Sphaerotheca test (cucumber)/protective
Format: in vivo
Details: cucumber plants, protective spray; application rate 750 g/ha; evaluation 7 days after inoculation
Experimental: as §1
To test for protective activity, young cucumber plants are sprayed with the preparation of active compound at the stated application rates. One day after the treatment, the plants are inoculated with a spore suspension of Sphaerotheca fuliginea. The plants are then placed in a greenhouse at 70% relative atmospheric humidity and a temperature of 23° C.
Evaluation is carried out 7 days after the inoculation. 0% means an efficacy which corresponds to that of the control, whereas an efficacy of 100% means that no infection is observed.
Cc1nn(C)c(F)c1C(=O)Nc1ccccc1CCC(C)C [drawing 128] showed an Efficacy in % of 100%.
For Cc1ccsc1C(=O)Nc1ccccc1CCC(C)(C)C [drawing 129], the Efficacy in % was 100%.
CC(C)CCc1ccccc1NC(=O)c1ccccc1C(F)(F)F [drawing 130] gave an Efficacy in % of 100%.
Cc1ccccc1C(=O)Nc1ccccc1CCC(C)(C)C [drawing 131] showed an Efficacy in % of 100%.
